Here are results for 1 compound from publication PMC10927554, “An improved pathway for autonomous bioluminescence imaging in eukaryotes” (Nature Methods, 2024).

The assay has as its target T1, nnLuz (Neonothopanus nambi, UniProt A0A3G9JYH7, I3S/N4T/F11L/I63T/T99P/T192S/A199P).
T1 construct: gene luz; HiBiT-tag fusion, expressed in yeast Pichia pastoris GS115, clarified lysate; codon-optimized synthetic gene
In words: luminescence, Michaelis-Menten fit, HiBiT-normalized. Type of assay: biochemical. The conditions noted are these: yeast lysate; 0.2 M sodium phosphate, 0.5 M Na2SO4, pH 8; Fln 0.0244-50 uM; DDM, thioglycolic acid; variant nnLuz_v4.

T1 sequence (A0A3G9JYH7 whole entry I3S/N4T/F11L/I63T/T99P/T192S/A199P, the tested form may be a part): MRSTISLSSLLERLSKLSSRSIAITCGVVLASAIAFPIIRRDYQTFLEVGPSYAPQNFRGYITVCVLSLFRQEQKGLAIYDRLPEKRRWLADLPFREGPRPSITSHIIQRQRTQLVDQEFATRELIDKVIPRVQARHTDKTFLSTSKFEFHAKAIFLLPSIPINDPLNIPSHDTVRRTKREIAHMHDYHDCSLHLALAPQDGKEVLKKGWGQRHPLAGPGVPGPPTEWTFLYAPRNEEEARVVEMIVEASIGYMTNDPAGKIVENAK

As to `O=c1oc(/C=C/c2ccc(O)c(O)c2)cc(O)c1O` [Fln, fungal luciferin], the KM result is recorded as “Yeast strains expressing nnLuz_wt/v4–HiBIT fusions were inoculated into YPD medium”.
